What follows are compounds tested against rat brain cortical membranes (GABA receptor complex, [35S]-TBPS binding) (assay: Steroid inhibition of [35S]-TBPS binding). Details: 3 nM [35S]-TBPS, in the presence of 5 mM GABA.
Description: [^35S]-t-Butylbicyclophosphorothionate (TBPS) binding assays using rat brain cortical membranes in the presence of 5 mM GABA has been described (Gee et al, J Pharmacol. Exp. Ther. 1987, 241, 346-353; Hawkinson et al, Mol. Pharmacol. 1994, 46, 977-985; Lewin, A. H et al., Mol. Pharmacol. 1989, 35, 189-194).
Briefly, cortices are rapidly removed following decapitation of carbon dioxide-anesthetized Sprague-Dawley rats (200-250 g). The cortices are homogenized in 10 volumes of ice-cold 0.32 M sucrose using a glass/teflon homogenizer and centrifuged at 1500×g for 10 min at 4° C. The resultant supernatants are centrifuged at 10,000×g for 20 min at 4° C. to obtain the P2 pellets. The P2 pellets are resuspended in 200 mM NaCl/50 mM Na—K phosphate pH 7.4 buffer and centrifuged at 10,000×g for 10 min at 4° C. This washing procedure is repeated twice and the pellets are resuspended in 10 volumes of buffer. Aliquots ([…]) of the membrane suspensions are incubated with 3 nM [^35S]-TBPS and […] aliquots of test drug dissolved in dimethyl sulfoxide (DMSO) (final 0.5%) in the presence of 5 mM GABA. The incubation is brought to a final volume of 1.0 mL with buffer. Nonspecific binding is determined in the presence of […] and ranged from 15 to 25%. Following a 90 min incubation at room temp, the assays are terminated by filtration through glass fiber filters (Schleicher and Schuell No. 32) using a cell harvester (Brandel) and rinsed three times with ice-cold buffer. Filter bound radioactivity is measured by liquid scintillation spectrometry. Non-linear curve fitting of the overall data for each drug averaged for each concentration is done using Prism (GraphPad). […] The concentration of test compound producing 50% inhibition (IC50) of specific binding and the maximal extent of inhibition (Imax) are determined for the individual experiments with the same model used for the overall data and then the means±SEMs of the individual experiments are calculated.
Various compounds are or can be screened to determine their potential as modulators of [^35S]-TBPS binding in vitro. These assays are or can be performed in accordance with the above discussed procedures.
Work on `CC(=O)[C@H]1[C@H](C)C[C@H]2[C@@H]3CC[C@H]4C[C@](C)(O)CC[C@@H]4[C@H]3CC[C@@]21C` (stereo in doubt) [Compound 91] yielded an IC50 of 10 to 50 nM. `C[C@@H]1C[C@H]2C[C@](C)(O)CC[C@]2(C)[C@H]2CC[C@]3(C)[C@@H](C#N)CC[C@H]3[C@H]12` [Compound 1] was tested, and the IC50 was ≥ 500 nM. In the case of `C[C@H]1C[C@H]2C[C@](C)(O)CC[C@]2(C)[C@H]2CC[C@]3(C)[C@@H](C#N)CC[C@H]3[C@H]12` [Compound 2], the IC50 is reported as ≥ 500 nM. In the case of `CO[C@H]1CC[C@H]2[C@@H]3[C@H](C)C[C@H]4C[C@](C)(O)CC[C@]4(C)[C@H]3CC[C@]12C` [Compound 3], the IC50 is reported as ≥ 500 nM. For `CO[C@H]1CC[C@H]2[C@@H]3[C@@H](C)C[C@H]4C[C@](C)(O)CC[C@]4(C)[C@H]3CC[C@]12C` [Compound 4], the IC50 was ≥ 500 nM. `CC(=O)[C@H]1CC[C@H]2[C@@H]3[C@H](C)C[C@H]4C[C@](C)(O)CC[C@]4(C)[C@H]3CC[C@]12C` [Compound 5] was tested, and the IC50 was ≥ 500 nM. For `CC(=O)[C@H]1CC[C@H]2[C@@H]3[C@@H](C)C[C@H]4C[C@](C)(O)CC[C@]4(C)[C@H]3CC[C@]12C` [Compound 6], the IC50 was ≥ 500 nM. `C[C@H]1C[C@H]2C[C@](C)(O)CC[C@]2(C)[C@H]2CC[C@]3(C)[C@@H](C(=O)Cn4cc5ccncc5n4)CC[C@H]3[C@H]12` [Compound 7] was tested, and the IC50 was ≥ 500 nM. With `C[C@@H]1C[C@H]2C[C@](C)(O)CC[C@]2(C)[C@H]2CC[C@]3(C)[C@@H](C(=O)Cn4cc5ccncc5n4)CC[C@H]3[C@H]12` [Compound 8] the IC50 was ≥ 500 nM. `C[C@H]1C[C@H]2C[C@](C)(O)CC[C@]2(C)[C@H]2CC[C@]3(C)[C@@H](C(=O)Cn4ncc5ccncc54)CC[C@H]3[C@H]12` [Compound 9] showed an IC50 of 100 to 500 nM. In the case of `C[C@@H]1C[C@H]2C[C@](C)(O)CC[C@]2(C)[C@H]2CC[C@]3(C)[C@@H](C(=O)Cn4ncc5ccncc54)CC[C@H]3[C@H]12` [Compound 10], the IC50 is reported as ≥ 500 nM. `COC[C@H]1C[C@H]2C[C@](C)(O)CC[C@]2(C)[C@H]2CC[C@]3(C)[C@@H](C(C)=O)CC[C@H]3[C@H]12` [Compound 11] was tested, and the IC50 was ≥ 500 nM. With `COC[C@@H]1C[C@H]2C[C@](C)(O)CC[C@]2(C)[C@H]2CC[C@]3(C)[C@@H](C(C)=O)CC[C@H]3[C@H]12` [Compound 12] the IC50 was ≥ 500 nM. With `COC[C@H]1C[C@H]2C[C@](C)(O)CC[C@]2(C)[C@H]2CC[C@]3(C)[C@@H](C(=O)Cn4cc(C#N)cn4)CC[C@H]3[C@H]12` [Compound 13] the IC50 was ≥ 500 nM. For `COC[C@@H]1C[C@H]2C[C@](C)(O)CC[C@]2(C)[C@H]2CC[C@]3(C)[C@@H](C(=O)Cn4cc(C#N)cn4)CC[C@H]3[C@H]12` [Compound 14], the IC50 was ≥ 500 nM. For `COC[C@H]1C[C@H]2C[C@](C)(O)CC[C@]2(C)[C@H]2CC[C@]3(C)[C@@H](C(=O)Cn4nc5ccc(OC)cc5n4)CC[C@H]3[C@H]12` [Compound 15], the IC50 was ≥ 500 nM. For `COC[C@H]1C[C@H]2C[C@](C)(O)CC[C@]2(C)[C@H]2CC[C@]3(C)[C@@H](C(=O)Cn4nnc5ccc(OC)cc54)CC[C@H]3[C@H]12` [Compound 16], the IC50 was ≥ 500 nM. With `COC[C@H]1C[C@H]2C[C@](C)(O)CC[C@]2(C)[C@H]2CC[C@]3(C)[C@@H](C(=O)Cn4nnc5cc(OC)ccc54)CC[C@H]3[C@H]12` [Compound 17] the IC50 was ≥ 500 nM. `COC[C@@H]1C[C@H]2C[C@](C)(O)CC[C@]2(C)[C@H]2CC[C@]3(C)[C@@H](C(=O)Cn4nc5ccc(OC)cc5n4)CC[C@H]3[C@H]12` [Compound 18] was tested, and the IC50 was ≥ 500 nM. With `COC[C@@H]1C[C@H]2C[C@](C)(O)CC[C@]2(C)[C@H]2CC[C@]3(C)[C@@H](C(=O)Cn4nnc5ccc(OC)cc54)CC[C@H]3[C@H]12` [Compound 19] the IC50 was ≥ 500 nM. For `COC[C@@H]1C[C@H]2C[C@](C)(O)CC[C@]2(C)[C@H]2CC[C@]3(C)[C@@H](C(=O)Cn4nnc5cc(OC)ccc54)CC[C@H]3[C@H]12` [Compound 20], the IC50 was ≥ 500 nM. With `COC[C@H]1C[C@H]2C[C@](C)(O)CC[C@]2(C)[C@H]2CC[C@]3(C)[C@@H](C(=O)Cn4cc5ccncc5n4)CC[C@H]3[C@H]12` [Compound 21] the IC50 was ≥ 500 nM. `COC[C@@H]1C[C@H]2C[C@](C)(O)CC[C@]2(C)[C@H]2CC[C@]3(C)[C@@H](C(=O)Cn4ncc5ccncc54)CC[C@H]3[C@H]12` [Compound 23] was tested, and the IC50 was ≥ 500 nM. With `COC[C@@H]1C[C@H]2C[C@](C)(O)CC[C@]2(C)[C@H]2CC[C@]3(C)[C@@H](C(=O)Cn4cc5ccncc5n4)CC[C@H]3[C@H]12` [Compound 24] the IC50 was ≥ 500 nM. In the case of `CC(=O)[C@H]1CC[C@H]2[C@@H]3[C@H](O)C[C@H]4C[C@](C)(O)CC[C@]4(C)[C@H]3CC[C@]12C` [Compound 25], the IC50 is reported as ≥ 500 nM. `C[C@@]1(O)CC[C@@]2(C)[C@@H](C[C@@H](O)[C@@H]3[C@@H]2CC[C@]2(C)[C@@H](C(=O)Cn4cc(C#N)cn4)CC[C@@H]32)C1` [Compound 26] was tested, and the IC50 was ≥ 500 nM. For `C[C@@]1(O)CC[C@@]2(C)[C@@H](C[C@@H](O)[C@@H]3[C@@H]2CC[C@]2(C)[C@@H](C(=O)Cn4cc5ccncc5n4)CC[C@@H]32)C1` [Compound 27], the IC50 was ≥ 500 nM. In the case of `C[C@@]1(O)CC[C@@]2(C)[C@@H](C[C@@H](O)[C@@H]3[C@@H]2CC[C@]2(C)[C@@H](C(=O)Cn4ncc5ccncc54)CC[C@@H]32)C1` [Compound 28], the IC50 is reported as ≥ 500 nM. With `CO[C@@H]1C[C@H]2C[C@](C)(O)CC[C@]2(C)[C@H]2CC[C@]3(C)[C@@H](C(C)=O)CC[C@H]3[C@H]12` [Compound 29] the IC50 was ≥ 500 nM. In the case of `CO[C@H]1C[C@H]2C[C@](C)(O)CC[C@]2(C)[C@H]2CC[C@]3(C)[C@@H](C(C)=O)CC[C@H]3[C@H]12` [Compound 30], the IC50 is reported as ≥ 500 nM. For `CO[C@H]1C[C@H]2C[C@](C)(O)CC[C@]2(C)[C@H]2CC[C@]3(C)[C@@H](C(=O)Cn4cc(C#N)cn4)CC[C@H]3[C@H]12` [Compound 31], the IC50 was ≥ 500 nM. `Cc1nnn(CC(=O)[C@H]2CC[C@H]3[C@@H]4[C@H](C)C[C@H]5C[C@](C)(O)CC[C@]5(C)[C@H]4CC[C@]23C)n1` [Compound 34] was tested, and the IC50 was ≥ 500 nM. `Cc1nnnn1CC(=O)[C@H]1CC[C@H]2[C@@H]3[C@H](C)C[C@H]4C[C@](C)(O)CC[C@]4(C)[C@H]3CC[C@]12C` [Compound 36] was tested, and the IC50 was ≥ 500 nM. For `C[C@@H]1C[C@H]2C[C@](C)(O)CC[C@]2(C)[C@H]2CC[C@]3(C)[C@@H](C(=O)Cn4cc(C#N)cn4)CC[C@H]3[C@H]12` [Compound 38], the IC50 was 100 to 500 nM. `C[C@H]1C[C@H]2C[C@](C)(O)CC[C@]2(C)[C@H]2CC[C@]3(C)[C@@H](C(=O)Cn4cc(C#N)cn4)CC[C@H]3[C@H]12` [Compound 39] gave an IC50 of 100 to 500 nM. In the case of `C[C@@]1(O)CC[C@@]2(C)[C@@H](CC[C@@H]3[C@@H]2C[C@@H](O)[C@]2(C)[C@@H](C#N)CC[C@@H]32)C1` [Compound 40], the IC50 is reported as ≥ 500 nM. In the case of `CO[C@@H]1C[C@H]2[C@@H](CC[C@H]3C[C@](C)(O)CC[C@@]32C)[C@@H]2CC[C@H](C#N)[C@@]12C` [Compound 41], the IC50 is reported as 100 to 500 nM. With `CO[C@H]1CC[C@H]2[C@@H]3CC[C@H]4C[C@](C)(O)CC[C@]4(C)[C@H]3C[C@@H](OC)[C@]12C` [Compound 42] the IC50 was 100 to 500 nM. For `CO[C@@H]1C[C@H]2[C@@H](CC[C@H]3C[C@](C)(O)CC[C@@]32C)[C@@H]2CC[C@H](C(C)=O)[C@@]12C` [Compound 43], the IC50 was 100 to 500 nM. In the case of `CO[C@@H]1C[C@H]2[C@@H](CC[C@H]3C[C@](C)(O)CC[C@@]32C)[C@@H]2CC[C@H](C(=O)Cn3cc(C#N)cn3)[C@@]12C` [Compound 44], the IC50 is reported as 10 to 50 nM. `CC(=O)[C@H]1CC[C@H]2[C@@H]3CC[C@H]4C[C@](C)(O)CC[C@]4(C)[C@H]3CC(=O)[C@]12C` [Compound 46] was tested, and the IC50 was ≥ 500 nM.

Reference: US20250092084A1, “C7, C12, AND C16 SUBSTITUTED NEUROACTIVE STEROIDS AND THEIR METHODS OF USE” (Sage Therapeutics, Inc., priority 2016, published 2025)
